Converted amounts (≈) assume the structure as drawn.
How the values were obtained:
[1] = Aqueous solubility after sonication; assay type: physicochemical; settings: after sonication for 30 min
From the text: The synthesis of the B-ring series mirrored that of the A-ring series producing B-ring hybrids AM-191 (n = 1, 27a), AM-192 (n = 3, 27b), and AM-193 (n = 5, 27c) in 9 steps (Fig. 3).

4TO7 cells = test: RealTime-Glo MT cell viability assay, 4TO7; assay type: cell-based, mouse; settings: 24 h
Procedure: (§1) Figure 5 (a) and (b) Analysis of induced Cyp24a1 expression in 4TO7 (a) and 4T1 (b) cells to test for VDR agonism of DK-406 and heterocyclic analogues after 24 h treatment. c-e. Analysis of the cytotoxicity of hybrid compounds after 24 h using the MTGlo assay (see Methods for details) in 4TO7 (c), 4T1 (d) and MDA-MB-231 (e) cells. […] Each condition was compared to control. *: p ≤ 0.05, **: p ≤ 0.01, ***: p ≤ 0.001, ****: p ≤ 0.0001, ns: not significant.
(§2) As previously, we were interested in studying the efficacy of hybrids in models of TNBC. We used the 4T1 cell line[20] as well as the related TNBC cell line 4TO7, which was derived from the same mouse tumor as 4T1 cells in Balb/c mice[33]. 4TO7 cells readily form primary tumors. […] These lines also have the advantage that anti-tumor efficacy studies can be performed in Balb/c mice, which have intact immune systems. Compounds were initially tested for VDR agonist activity in 4TO7 cells by screening induction of the VDR target gene Cyp24a1. […]
(§3) The assay was performed to assess cell viability in order to determine analogue cytotoxicity. […] Luminescence was measured using a 1420 Luminescence Counter Victor Light (PerkinElmer), normalized to control, and plotted. […]

4T1 cells = test: RealTime-Glo MT cell viability assay, 4T1; assay type: cell-based, mouse; settings: 24 h
Procedure: as §1, §2, §3

MB-MDA231 cells = test: RealTime-Glo MT cell viability assay, MB-MDA231; assay type: cell-based; settings: human TNBC cell line MB-MDA231, 24 h
Procedure: as §1, §2, §3

[2] = system: 4T1 mouse model of triple negative breast cancer; design: method as in PMID 28847749; settings: aggressive 4T1 mouse model of TNBC; cited from earlier work

CCC(CC)(c1ccc(OCCCCCC(=O)NO)cc1)c1ccc(OCC(O)C(C)(C)C)c(C)n1 (centres unmarked) [AM-193]
higher solubility in water compared to DK-367 [1]: 27% | solubility at 30 min ([1]; water): 2.43 µg/mL (≈ 4.85 µM) | cytotoxicity (MT-Glo viability) (4TO7 cells): most potent compound tested | potency in MT-Glo assay relative to DK-406 (4TO7 cells): at least tenfold | cytotoxicity (MT-Glo viability) (4T1 cells): most potent compound tested | potency in MT-Glo assay relative to DK-406 (4T1 cells): at least tenfold | cytotoxicity (MT-Glo viability) (MB-MDA231 cells): potency of AM-193 as a cytotoxic agent was also confirmed

CCC(CC)(c1ccc(C(=O)NCCCCCC(=O)NO)cc1)c1ccc(OCC(O)C(C)(C)C)c(C)c1 (centres unmarked) [DK-406]
tumor growth and metastasis [2]: reduced tumor growth and metastasis
